Laboratory results from patent US11807693B2 (priority 2014, dated 2023).
Where two headings read alike, the source gives them in different places. Starred links: 1 amine or outer side, 2 acyl side, 3 side chain; linkers in the order of their positions; H or OH if unused. Non-standard residues stand in square brackets, D forms with d. Residues, ends and D or L forms follow the SMILES beside them. No end group written: not given here. *: point of attachment. Oic = O=C(O)[C@@H]1C[C@@H]2CCCC[C@@H]2N1; Phe(4-Cl) = N[C@@H](Cc1ccc(Cl)cc1)C(=O)O; γGlu = O=C(O)[C@H](CCC(=O)[*:2])N[*:1]; NMeR = CN[C@@H](CCCNC(=N)N)C(=O)O; Tridecanoyl = CCCCCCCCCCCCC(=O)*; hArg = N=C(N)NCCCC[C@H](N)C(=O)O; Cha = N[C@@H](CC1CCCCC1)C(=O)O; αMeL = CC(C)C[C@](C)(N)C(=O)O; β3hV = CC(C)[C@H](N)CC(=O)O; Nle = CCCC[C@H](N)C(=O)O; Orn = NCCC[C@H](N)C(=O)O; AEEA = NCCOCCOCC(=O)O; Aib = CC(C)(N)C(=O)O; βAla = NCCC(=O)O

Assays:
[1] = In vitro stability in rat liver homogenate; format: in vitro ADME; conditions: tissue homogenate; for Stability at 4 hours (% Remaining) Liver: 5 μM
Method: (§1) Apelin peptides were spiked into rat plasma, liver homogenate, and kidney homogenate, which were obtained from commercial sources, to a final concentration of 5 μM. The samples were then incubated at 37° C. over a period of 4 hr. […] In a typical experiment, an aliquot of 100 μL of sample was taken from the incubation vial, followed by addition of 300 μL of MeOH containing internal standard. The quenched sample was centrifuged at 5500 g for 15 min after 15 min vortex in room temperature. The supernatant was then analyzed by high resolution LC-MS. […] In vitro plasma, […], and kidney stability results are shown below in Table 14.

[2] = In vitro stability in rat plasma; format: in vitro ADME; conditions: for Stability at 4 hours (% Remaining) Plasma: 5 μM
Method: as §1

[3] = In vitro stability in rat kidney homogenate; format: in vitro ADME; conditions: rat, tissue homogenate; for Stability at 4 hours (% Remaining) Kidney: 5 μM
Method: as §1

[4] = molecular target: T1, rat APJ receptor (Rattus norvegicus, UniProt Q9JHG3); experiment: [35S] GTPγS assay, rat APJ receptor; format: biochemical
T1 construct: expressed in transfected cells
T1 sequence (Q9JHG3 1-377): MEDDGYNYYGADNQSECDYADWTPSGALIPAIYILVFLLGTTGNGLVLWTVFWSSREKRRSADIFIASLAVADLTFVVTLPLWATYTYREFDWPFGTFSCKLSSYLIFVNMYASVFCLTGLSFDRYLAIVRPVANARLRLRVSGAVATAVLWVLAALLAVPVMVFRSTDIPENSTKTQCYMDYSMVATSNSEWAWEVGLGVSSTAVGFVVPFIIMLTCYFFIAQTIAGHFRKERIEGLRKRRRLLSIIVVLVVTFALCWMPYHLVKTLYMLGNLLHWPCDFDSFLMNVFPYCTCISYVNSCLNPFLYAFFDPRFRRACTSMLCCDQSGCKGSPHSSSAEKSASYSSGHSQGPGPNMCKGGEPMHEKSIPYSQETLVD
Method: The membranes were incubated with modified peptides in the assay buffer. […] Bound [^35S] GTPγS was separated from free radiolabel by filtration. The filter bound radioactivity was determined by liquid scintillation counting.

[5] = rat APJ receptor, read-out: EC50 Rat APJ Receptor
[6] = Table 16, read-out: EC50 Rat APJ Receptor

110 (QRPRLSHKGPMPF; source: /note="N-term MerPr(10KmPEGacetamide)") [compound 110]
Stability at 4 hours (% Remaining) Liver [1]: 61 % Remaining
Stability at 4 hours (% Remaining) Plasma [2]: 36 % Remaining
Stability at 4 hours (% Remaining) Kidney [3]: 27 % Remaining

120 (QRP[NMeR][Cha]SHKG[Oic][Nle][Aib][Phe(4-Cl)]; not fully specified (N-terminus); ends and bridges not checked; also: 10K mPEG acetamide on N-terminal MerPr) [compound 120]
Stability at 4 hours (% Remaining) Liver [1]: 61 % Remaining
Stability at 4 hours (% Remaining) Plasma [2]: 68 % Remaining
Stability at 4 hours (% Remaining) Kidney [3]: <1.0 % Remaining

CC[C@H](NC(=O)[C@H](CC(N)=O)NC(=O)[C@H](Cc1c[nH]cn1)NC(=O)[C@H](CCCCN)NC(=O)[C@H](CCCNC(=N)N)NC(=O)[C@H](CC(C)C)NC(=O)[C@@H](N)CCCCN)C(=O)N[C@@H](CC(C)C)C(=O)N[C@@H](CCC(N)=O)C(=O)N[C@@H](CCCNC(=N)N)C(=O)N[C@@H](CCCNC(=N)N)C(=O)N[C@@H](CC)C(=O)N[C@@H](CCSC)C(=O)N1CCC[C@H]1C(=O)N[C@@H](CC(C)C)C(=O)N[C@@H](Cc1c[nH]cn1)C(=O)N[C@@H](CO)C(=O)N[C@@H](CCCNC(=N)N)C(=O)N[C@H](C(=O)N1CCC[C@H]1C(=O)N[C@@H](Cc1ccccc1)C(=O)N1CCC[C@H]1C(=O)O)C(C)C [compound 14]
EC50 [4, 5]: 32.4 nM
remaining at 4 h, 5 μM [1]: < 1%
remaining at 4 h, 5 μM [2]: < 1%

CCCC[C@H](NC(=O)[C@@H]1CCCN1C(=O)CNC(=O)[C@H](CCCCN)NC(=O)[C@H](Cc1c[nH]cn1)NC(=O)[C@H](CO)NC(=O)[C@](C)(CC(C)C)NC(=O)[C@H](CCCCNC(=N)N)NC(=O)[C@]1(C)CCCN1C(=O)[C@H](CCCNC(=N)N)NC(=O)[C@H](CCC(N)=O)NC(C)=O)C(=O)N1CCC[C@H]1C(=O)N[C@@H](Cc1ccc(Cl)cc1)C(=O)O [compound 69]
remaining at 4 h, 5 μM [2]: < 1%
remaining at 4 h, 5 μM [3]: < 1%

CCCC[C@H](NC(=O)[C@@H]1CCCN1C(=O)CNC(=O)[C@H](CCCCN)NC(=O)[C@H](Cc1c[nH]cn1)NC(=O)[C@H](CO)NC(=O)[C@](C)(CC(C)C)NC(=O)[C@H](CCCCNC(=N)N)NC(=O)[C@@H]1CCCN1C(=O)[C@@H](CCCNC(=N)N)NC(=O)[C@H](CCC(N)=O)NC(C)=O)C(=O)N1CCC[C@H]1C(=O)N[C@@H](Cc1ccc(Cl)cc1)C(=O)O [compound 70]
EC50 [4, 5]: 9.74 nM
remaining at 4 h, 5 μM [1]: 84.9%
remaining at 4 h, 5 μM [2]: 86.1%

CCCC[C@H](NC(=O)[C@@H]1CCCN1C(=O)CNC(=O)[C@H](CCCCN)NC(=O)[C@H](Cc1c[nH]cn1)NC(=O)[C@H](CO)NC(=O)[C@](C)(CC(C)C)NC(=O)[C@H](CCCNC(=N)N)N(C)C(=O)[C@@H]1CCCN1C(=O)[C@H](CCCCNC(=N)N)NC(=O)[C@H](CCC(N)=O)NC(C)=O)C(=O)N1CCC[C@H]1C(=O)N[C@@H](Cc1ccc(Cl)cc1)C(=O)O [compound 71]
remaining at 4 h, 5 μM [1]: 35.5%
remaining at 4 h, 5 μM [2]: 0%
remaining at 4 h, 5 μM [3]: 0.1%

CCCCCCCCCCCCC(=O)N[C@@H](CCC(=O)NCCOCCOCC(=O)NCCOCCOCC(=O)N[C@@H](CCCN)C(=O)N[C@@H](Cc1ccccc1)C(=O)N[C@@H](CCCCNC(=N)N)C(=O)N[C@@H](CCCCNC(=N)N)C(=O)N[C@H](CC(=O)N[C@@H](CCCCNC(=N)N)C(=O)N1CCC[C@H]1C(=O)N[C@@H](CCCCNC(=N)N)C(=O)N[C@@H](CC1CCCCC1)C(=O)N[C@@H](CO)C(=O)N[C@@H](Cc1c[nH]cn1)C(=O)N[C@@H](CCCCN)C(=O)NCC(=O)N1[C@H](C(=O)N[C@@H](CCCC)C(=O)N2CCC[C@H]2C(=O)N[C@@H](Cc2ccc(Cl)cc2)C(=O)O)C[C@@H]2CCCC[C@@H]21)C(C)C)C(=O)O [compound 307] ({Tridecanoyl-γGlu-AEEA-AEEA}-[Orn]F[hArg][hArg][β3hV][hArg]P[hArg][Cha]SHKG[Oic][Nle]P[Phe(4-Cl)]-OH)
remaining at 4 h, 5 μM [1]: 66.8%
remaining at 4 h, 5 μM [2]: > 90%
remaining at 4 h, 5 μM [3]: 13.8%

CCCCCCCCCCCCC(=O)N[C@@H](CCC(=O)NCCOCCOCC(=O)NCCOCCOCC(=O)N[C@@H](CCC(N)=O)C(=O)N[C@@H](CCCNC(=N)N)C(=O)N1CCC[C@H]1C(=O)N(C)[C@@H](CCCNC(=N)N)C(=O)N[C@@H](CC(C)C)C(=O)N[C@@H](CO)C(=O)N[C@@H](Cc1c[nH]cn1)C(=O)N[C@@H](CCCCN)C(=O)NCC(=O)N1[C@H](C(=O)N[C@@H](CCCC)C(=O)N2CCC[C@H]2C(=O)N[C@@H](Cc2ccc(Cl)cc2)C(=O)O)C[C@@H]2CCCC[C@@H]21)C(=O)O [compound 352] ({Tridecanoyl-γGlu-AEEA-AEEA}-QRP[NMeR]LSHKG[Oic][Nle]P[Phe(4-Cl)]-OH)
EC50 [4, 6]: 0.23 nM
remaining at 4 h, 5 μM [1]: 0%
remaining at 4 h, 5 μM [2]: 88%

CCCCCCCCCCCCC(=O)N[C@@H](CCC(=O)NCCOCCOCC(=O)NCCOCCOCC(=O)N[C@H](CCC(N)=O)C(=O)N[C@@H](CCCCNC(=N)N)C(=O)N1CCC[C@H]1C(=O)N[C@H](CCCNC(=N)N)C(=O)N[C@@H](CC1CCCCC1)C(=O)N[C@@H](CO)C(=O)N[C@@H](Cc1ccc(O)cc1)C(=O)N[C@@H](CCCCN)C(=O)NCC(=O)N1[C@H](C(=O)N[C@@H](CCCC)C(=O)N2CCC[C@H]2C(=O)N[C@@H](Cc2ccc(Cl)cc2)C(=O)O)C[C@@H]2CCCC[C@@H]21)C(=O)O [compound 373] ({Tridecanoyl-γGlu-AEEA-AEEA}-[dQ][hArg]P[dR][Cha]SYKG[Oic][Nle]P[Phe(4-Cl)]-OH)
remaining at 4 h, 5 μM [3]: 64%

CCCCCCCCCCCCC(=O)N[C@@H](CCC(=O)NCCOCCOCC(=O)NCCOCCOCC(=O)N[C@@H](CCC(N)=O)C(=O)N[C@@H](CCCNC(=N)N)C(=O)N(C)[C@@H](CCCNC(=N)N)C(=O)N[C@@](C)(CC(C)C)C(=O)N[C@@H](CO)C(=O)N[C@@H](Cc1c[nH]cn1)C(=O)N[C@@H](CCCCN)C(=O)NCC(=O)N1[C@H](C(=O)N[C@@H](CCCC)C(=O)N2CCC[C@H]2C(=O)N[C@@H](Cc2ccc(Cl)cc2)C(=O)O)C[C@@H]2CCCC[C@@H]21)C(=O)O [compound 396] ({Tridecanoyl-γGlu-AEEA-AEEA}-QR[NMeR][αMeL]SHKG[Oic][Nle]P[Phe(4-Cl)]-OH)
EC50 [4, 6]: 1.14 nM
remaining at 4 h, 5 μM [1]: < 1%
remaining at 4 h, 5 μM [2]: > 90%

CCCCCCCCCCCCC(=O)N[C@@H](CCC(=O)NCCOCCOCC(=O)NCCOCCOCC(=O)N[C@@H](CCC(N)=O)C(=O)N[C@@H](CCCNC(=N)N)C(=O)N1CCC[C@H]1C(=O)N(C)[C@@H](CCCNC(=N)N)C(=O)N[C@@H](CC(C)C)C(=O)N[C@@H](CO)C(=O)N[C@@H](Cc1c[nH]cn1)C(=O)NCCC(=O)NCC(=O)N1CCC[C@H]1C(=O)N[C@@H](CCCC)C(=O)N1CCC[C@H]1C(=O)N[C@@H](Cc1ccc(Cl)cc1)C(=O)O)C(=O)O [compound 424] ({Tridecanoyl-γGlu-AEEA-AEEA}-QRP[NMeR]LSH[βAla]GP[Nle]P[Phe(4-Cl)]-OH)
EC50 [4, 6]: 17.2 nM
remaining at 4 h, 5 μM [1]: < 1%
remaining at 4 h, 5 μM [2]: 2%

CCCCCC(=O)N[C@@H](CCC(=O)NCCOCCOCC(=O)NCCOCCOCC(=O)N[C@@H](CCC(N)=O)C(=O)N(C)[C@@H](CCCCNC(=N)N)C(=O)N1CCC[C@H]1C(=O)N(C)[C@@H](CCCNC(=N)N)C(=O)N[C@@](C)(CC(C)C)C(=O)N[C@@H](CO)C(=O)N[C@@H](Cc1c[nH]cn1)C(=O)N[C@@H](CCCCN)C(=O)NCC(=O)N1CCC[C@H]1C(=O)N[C@@H](CCCC)C(=O)N1CCC[C@H]1C(=O)N[C@@H](Cc1ccc(Cl)cc1)C(=O)O)C(=O)O [compound 561]
EC50 [4, 5]: 5.94 nM
remaining at 4 h, 5 μM [1]: < 1%
remaining at 4 h, 5 μM [2]: < 1%
